# How the values were obtained:
# [1] = system: K562 nude mice transplanted tumor; test: Inhibition of growth of K562 nude mice transplanted tumor (pre-trial, experiment 1, experiment 2); assay type: in vivo, Balb/c nude mice; details: for tumor sizes: n=6
# Source text: 2.4 K562 cell: primary K562 cell is derived from bone marrow of a patient having leukemia, introduced by Blood Research Institute from abroad, stored and passaged in Pathologic Cell Bank; cultured in RPMI1640 medium (comprising 10% fetal bovine serum).
# 2.6 experimental animal: Balb/c nude mice, 4~5 weeks old, weight: 17~20 g, gender: half male and half female. Experimental Animal Institute of the Chinese Academy of Medical Sciences, certification number of experimental animals: SCXK (JING) 2005-0013.
# 3.1.1 Balb/c nude mice were subjected to 3.0Gy whole-body irradiation, after subcutaneous inoculation of primary K562 cells. About 4 weeks after inoculation, tumor masses in growing were removed and transplanted into […], and this process was repeated for 2~3 passages to establish high oncogenic K562 cell line.
# (§1) 3.1.2 Nude mice were subjected to 3.0Gy whole-body irradiation, after subcutaneous inoculation of the K562 cells. One week after inoculation, nude mice with visible tumors were divided into the following 4 groups each consisting of 6 animals. The following dosages were administered for 3 continuous weeks, with 7 doses per week, a total of 21 doses.
# Model control group: intraperitoneal injection of 20% aqueous solution of excipient at 0.2 ml/animal.
# High dosage group: intraperitoneal injection of artemether at 150 ml/kg.
# Middle dosage group: intraperitoneal injection of artemether at 100 ml/kg.
# Low dosage group: intraperitoneal injection of artemether at 50 ml/kg.
# (§2) Nude mice were subjected to a 3.0Gy whole-body irradiation, after subcutaneous inoculation of the K562 cells. One week after inoculation, nude mice with visible tumors were divided into the following 5 groups each consisting of 6 animals. The following dosages were administered for 3 continuous weeks, with 5 doses per week, a total of 15 doses.
# Positive control group: intraperitoneal injection of cyclophosphamide at 10 ml/kg.
# High dosage group: intraperitoneal injection of artemether at 100 ml/kg.
# Middle dosage group: intraperitoneal injection of artemether at 60 ml/kg.
# Low dosage group: intraperitoneal injection of artemether at 40 ml/kg.
# (§3) Nude mice were subjected to a 3.0Gy whole-body irradiation, after subcutaneous inoculation of the K562 cells. One week after inoculation, nude mice with visible tumors were divided into the following 5 groups each consisting of 6 nude mice.
# Model control group: intraperitoneal injection of 20% solution of excipient at 0.2ml/animal. The dosage was administered for 3 weeks, with 7 doses per week, a total of 21 doses.
# Positive control group: intraperitoneal injection of cyclophosphamide at 10 ml/kg. The dosage was administered for 3 weeks, with 7 doses per week, a total of 21 doses.
# (§4) High dosage group: intraperitoneal injection of artemether at 100 ml/kg. The dosage was administered for 3 weeks, with 5 doses per week, a total of 15 doses.
# (§5) Middle dosage group: intraperitoneal injection of artemether at 60 ml/kg. The dosage was administered for 3 weeks, with 7 doses per week, a total of 21 doses.
# (§6) Low dosage group: intraperitoneal injection of artemether at 40 ml/kg. The dosage was administered for 3 weeks, with 7 doses per week, a total of 21 doses.
# [2] = system: K562 nude mice transplanted tumor; test: Apoptosis of tumor cells from tumor-bearing animals (pre-trial); assay type: in vivo, Balb/c nude mice; details: 21 doses
# Experimental: as §1
# The effect of the drug on the apoptosis of the tumor cell: from the result of pre-trial (table 3), it appears that the apoptosis ratio in control group is higher than that in the treated group. In fact, this is because the tutor of control group grows more rapidly, has a larger volume, and thus a more significant necrosis. […] However, cells which are not inhibited by the drug form a tumor mass that are not different much from the tumor mass in control group. Therefore, in a mechanism study, tumor cells in vivo should not be used, and an in vitro test is preferred.
# [3] = mouse, in vivo
# Experimental: as §2, §3, §4, §5, §6
compound,measurement,setting,value
CO[C@H]1O[C@@H]2O[C@@]3(C)CC[C@H]4[C@H](C)CC[C@@H]([C@H]1C)[C@@]24OO3 [artemether],tumor sizes,"[1]; experiment 1, High dosage group: artemether 100 ml/kg intraperitoneal, 15 doses in 3 weeks, 1 week after inoculation",55.6±11.4 mm3
same,tumor sizes,"[1]; experiment 1, High dosage group: artemether 100 ml/kg intraperitoneal, 15 doses in 3 weeks, 2 weeks after inoculation",72.9±70.8 mm3
same,tumor sizes,"[1]; experiment 1, High dosage group: artemether 100 ml/kg intraperitoneal, 15 doses in 3 weeks, 3 weeks after inoculation",307.9±223.2 mm3
same,tumor sizes,"[1]; experiment 1, High dosage group: artemether 100 ml/kg intraperitoneal, 15 doses in 3 weeks, 4 weeks after inoculation",489.2±199.9 mm3
same,tumor mass,"[1]; experiment 1, High dosage group: artemether 100 ml/kg intraperitoneal, 15 doses, 4 weeks after inoculation",340.0 ± 237.6 mg
same,tumor sizes,"[1]; experiment 1, Low dosage group: artemether 40 ml/kg intraperitoneal, 15 doses in 3 weeks, 1 week after inoculation",42.0±9.0 mm3
same,tumor sizes,"[1]; experiment 1, Low dosage group: artemether 40 ml/kg intraperitoneal, 15 doses in 3 weeks, 2 weeks after inoculation",148.4±75.6 mm3
same,tumor sizes,"[1]; experiment 1, Low dosage group: artemether 40 ml/kg intraperitoneal, 15 doses in 3 weeks, 3 weeks after inoculation",432.6±332.5 mm3
same,tumor sizes,"[1]; experiment 1, Low dosage group: artemether 40 ml/kg intraperitoneal, 15 doses in 3 weeks, 4 weeks after inoculation",1127.7±142.8 mm3
same,tumor mass,"[1]; experiment 1, Low dosage group: artemether 40 ml/kg intraperitoneal, 15 doses, 4 weeks after inoculation",1135.0 ± 457.2 mg
same,tumor sizes,"[1]; experiment 1, Middle dosage group: artemether 60 ml/kg intraperitoneal, 15 doses in 3 weeks, 1 week after inoculation",51.3±4.5 mm3
same,tumor sizes,"[1]; experiment 1, Middle dosage group: artemether 60 ml/kg intraperitoneal, 15 doses in 3 weeks, 2 weeks after inoculation",127.5±22.3 mm3
same,tumor sizes,"[1]; experiment 1, Middle dosage group: artemether 60 ml/kg intraperitoneal, 15 doses in 3 weeks, 3 weeks after inoculation",376.7±135.8 mm3
same,tumor sizes,"[1]; experiment 1, Middle dosage group: artemether 60 ml/kg intraperitoneal, 15 doses in 3 weeks, 4 weeks after inoculation",1035.6±248.5 mm3
same,tumor mass,"[1]; experiment 1, Middle dosage group: artemether 60 ml/kg intraperitoneal, 15 doses, 4 weeks after inoculation",736.7 ± 247.6 mg
same,tumor sizes,"[1]; experiment 2, High dosage group: artemether 100 ml/kg intraperitoneal, 15 doses in 3 weeks, 1 week after inoculation",33.9±14.4 mm3
same,tumor sizes,"[1]; experiment 2, High dosage group: artemether 100 ml/kg intraperitoneal, 15 doses in 3 weeks, 2 weeks after inoculation",75.5±27.2 mm3
same,tumor sizes,"[1]; experiment 2, High dosage group: artemether 100 ml/kg intraperitoneal, 15 doses in 3 weeks, 3 weeks after inoculation",137.1±101.6 mm3
same,tumor sizes,"[1]; experiment 2, High dosage group: artemether 100 ml/kg intraperitoneal, 15 doses in 3 weeks, 4 weeks after inoculation",291.7±191.5 mm3
same,tumor mass,"[1]; experiment 2, High dosage group: artemether 100 ml/kg intraperitoneal, 15 doses, 4 weeks after inoculation",230 ± 1153.4 mg
same,tumor sizes,"[1]; experiment 2, Low dosage group: artemether 40 ml/kg intraperitoneal, 21 doses in 3 weeks, 1 week after inoculation",26.7±5.9 mm3
same,tumor sizes,"[1]; experiment 2, Low dosage group: artemether 40 ml/kg intraperitoneal, 21 doses in 3 weeks, 2 weeks after inoculation",203.7±127.3 mm3
same,tumor sizes,"[1]; experiment 2, Low dosage group: artemether 40 ml/kg intraperitoneal, 21 doses in 3 weeks, 3 weeks after inoculation",297.4±86.6 mm3
same,tumor sizes,"[1]; experiment 2, Low dosage group: artemether 40 ml/kg intraperitoneal, 21 doses in 3 weeks, 4 weeks after inoculation",729.2±272.8 mm3
same,tumor mass,"[1]; experiment 2, Low dosage group: artemether 40 ml/kg intraperitoneal, 21 doses, 4 weeks after inoculation",645 ± 314.7 mg
same,tumor sizes,"[1]; experiment 2, Middle dosage group: artemether 60 ml/kg intraperitoneal, 21 doses in 3 weeks, 1 week after inoculation",22.7±7.4 mm3
same,tumor sizes,"[1]; experiment 2, Middle dosage group: artemether 60 ml/kg intraperitoneal, 21 doses in 3 weeks, 2 weeks after inoculation",118.4±129.0 mm3
same,tumor sizes,"[1]; experiment 2, Middle dosage group: artemether 60 ml/kg intraperitoneal, 21 doses in 3 weeks, 3 weeks after inoculation",201.2±98.9 mm3
same,tumor sizes,"[1]; experiment 2, Middle dosage group: artemether 60 ml/kg intraperitoneal, 21 doses in 3 weeks, 4 weeks after inoculation",746.6±393.7 mm3
same,tumor mass,"[1]; experiment 2, Middle dosage group: artemether 60 ml/kg intraperitoneal, 21 doses, 4 weeks after inoculation",630 ± 418.9 mg
same,inhibition ratio,"[1]; of tumor mass, experiment 1, Low dosage group: artemether 40 ml/kg intraperitoneal, 15 doses, 4 weeks after inoculation, listed as artemether lyophilized powder for injection",no significant inhibition
same,inhibition ratio,"[1]; of tumor mass, experiment 1, Middle dosage group: artemether 60 ml/kg intraperitoneal, 15 doses, 4 weeks after inoculation, listed as artemether lyophilized powder for injection",31%
same,inhibition ratio,"[1]; of tumor mass, experiment 2, Low dosage group: artemether 40 ml/kg intraperitoneal, 21 doses, 4 weeks after inoculation, listed as artemether lyophilized powder for injection",55%
same,inhibition ratio,"[1]; of tumor mass, experiment 2, Middle dosage group: artemether 60 ml/kg intraperitoneal, 21 doses, 4 weeks after inoculation, listed as artemether lyophilized powder for injection",56%
same,inhibition ratio,"[1]; of tumor mass, pre-trial, Low dosage group: artemether 50 ml/kg intraperitoneal, 21 doses, 4 weeks after administration",41.1%
same,inhibition ratio,"[1]; of tumor mass, pre-trial, Middle dosage group: artemether 100 ml/kg intraperitoneal, 21 doses, 4 weeks after administration",64.9%
same,inhibition ratio,"[1]; of tumor volume, pre-trial, Low dosage group: artemether 50 ml/kg intraperitoneal, 21 doses, 3 weeks after administration",43.6%
same,inhibition ratio,"[1]; of tumor volume, pre-trial, Low dosage group: artemether 50 ml/kg intraperitoneal, 21 doses, 4 weeks after administration",44.6%
same,inhibition ratio,"[1]; of tumor volume, pre-trial, Middle dosage group: artemether 100 ml/kg intraperitoneal, 21 doses, 3 weeks after administration",70.3%
same,inhibition ratio,"[1]; of tumor volume, pre-trial, Middle dosage group: artemether 100 ml/kg intraperitoneal, 21 doses, 4 weeks after administration",69.1%
same,tumor volume,"[1]; pre-trial, High dosage group: artemether 150 ml/kg intraperitoneal, 21 doses in 3 weeks, 1 week after administration",55.3 mm3
same,tumor volume,"[1]; pre-trial, High dosage group: artemether 150 ml/kg intraperitoneal, 21 doses in 3 weeks, 2 weeks after administration",136.8 mm3
same,tumor volume,"[1]; pre-trial, High dosage group: artemether 150 ml/kg intraperitoneal, 21 doses in 3 weeks, 3 weeks after administration",454.1 mm3
same,tumor volume,"[1]; pre-trial, High dosage group: artemether 150 ml/kg intraperitoneal, 21 doses in 3 weeks, 4 weeks after administration",663.1 mm3
same,tumor mass,"[1]; pre-trial, High dosage group: artemether 150 ml/kg intraperitoneal, 21 doses, 4 weeks after administration",590 mg
same,tumor volume,"[1]; pre-trial, Low dosage group: artemether 50 ml/kg intraperitoneal, 21 doses in 3 weeks, 1 week after administration",174.9±74.7 mm3
same,tumor volume,"[1]; pre-trial, Low dosage group: artemether 50 ml/kg intraperitoneal, 21 doses in 3 weeks, 2 weeks after administration",535.5±253.42 mm3
same,tumor volume,"[1]; pre-trial, Low dosage group: artemether 50 ml/kg intraperitoneal, 21 doses in 3 weeks, 3 weeks after administration",997.1±327.71 mm3
same,tumor volume,"[1]; pre-trial, Low dosage group: artemether 50 ml/kg intraperitoneal, 21 doses in 3 weeks, 4 weeks after administration",1672.0 ± 331.0 mm3
same,tumor mass,"[1]; pre-trial, Low dosage group: artemether 50 ml/kg intraperitoneal, 21 doses, 4 weeks after administration",1436 ± 281.3 mg
same,tumor volume,"[1]; pre-trial, Middle dosage group: artemether 100 ml/kg intraperitoneal, 21 doses in 3 weeks, 1 week after administration",93.6±43.6 mm3
same,tumor volume,"[1]; pre-trial, Middle dosage group: artemether 100 ml/kg intraperitoneal, 21 doses in 3 weeks, 2 weeks after administration",219.9 ± 110.83 mm3
same,tumor volume,"[1]; pre-trial, Middle dosage group: artemether 100 ml/kg intraperitoneal, 21 doses in 3 weeks, 3 weeks after administration",524.6±265.57 mm3
same,tumor volume,"[1]; pre-trial, Middle dosage group: artemether 100 ml/kg intraperitoneal, 21 doses in 3 weeks, 4 weeks after administration",931.8±307.9 mm3
same,tumor mass,"[1]; pre-trial, Middle dosage group: artemether 100 ml/kg intraperitoneal, 21 doses, 4 weeks after administration",857 ± 574.4 mg
same,apoptosis ratio,[2]; High dosage group: artemether 150 intraperitoneal,2.63%
same,apoptosis ratio,[2]; Low dosage group: artemether 50 intraperitoneal,1.37±0.47%
same,apoptosis ratio,[2]; Middle dosage group: artemether 100 intraperitoneal,2.04 ±1.58%
same,toxicity,[3],without toxicity
